Source: paper PMC6556898 (Biomaterials, 2018)

Key:
[1] = test system: human monocyte-derived macrophages (MDM); assay: MTT cell vitality assay; type: cell-based; settings: 12 hours
HIV-1ADA = assay: Antiretroviral activity: reverse transcriptase; type: cell-based

In the case of `Cc1cc(/C=C/C#N)cc(C)c1Nc1ccnc(Nc2ccc(C#N)cc2)n1` [native RPV, rilpivirine], the “cell vitality (MTT)” value ([1]; 200 μM (RPV), highest concentration tested) was 37.9%, the “effect on cell vitality (MTT)” value ([1]; up to 50 μM (RPV)) was “little effect on cell vitality” and the “RT activity (progeny HIV virion production)” value (HIV-1ADA; 6.25 μM for 8 hours, challenge at day 5, MOI 0.1, 10 days post infection) was “virtually no protection”. For the same compound, the “RT activity (progeny HIV virion production)” value (HIV-1ADA; 12.5 mM RPV equivalents (printed) for 8 hours, challenge at day 5) was “no protection”.
